Tested on: H. pylori 26695
Assay: In vivo inhibition of HsrA: RNA-Seq transcriptomic analysis of exposed cells
Format: cell-based, Helicobacter pylori
Conditions: for log2 Fold Change: exposed to lethal concentrations vs control
Experimental: Bacterial growth from three blood agar plates of H. pylori ATCC 700392 (aka 26695) incubated for 48 h at 37 °C under microaerobic conditions was aseptically resuspended in BHI + FBS and adjusted to 10^7 CFU/mL. BHI broth cultures were incubated microaerobically at 37 °C for 24 h. […] At this time, bacterial growth was stopped by adding 1.5 mL ice-cold RNA stop solution (95% absolute ethanol, 5% acid-buffered phenol) and subsequently incubated on ice. Control samples were exposed to the same amount of DMSO instead of the inhibitor. Helicobacter cells from all samples were harvested by centrifugation (4000 rpm at 4 °C for 10 min), then the pellets were quickly frozen by immersion in liquid nitrogen and stored at −80 °C.
RNA-Seq analysis was performed by GENEWIZ (Azenta Life Sciences, Leipzig, Germany). Frozen cell pellets from two biological replicates of each treatment condition were properly submitted to GENEWIZ in dry ice. RNA-Seq libraries were prepared according to standard protocols via rRNA depletion, RNA fragmentation and random priming, reverse transcription, 5’-phosphorylation and dA-tailing of cDNAs, adaptor ligation, and PCR enrichment. Once the quality of each library was confirmed, they were sequenced on an Illumina NovaSeq 6000 (Illumina, San Diego, CA, USA) with 150-bp paired-ends. Raw sequence reads were filtered to remove possible adapter sequences and nucleotides with poor quality using Trimmomatic v.0.36 [105]. The trimmed reads were subsequently mapped to the H. pylori strain 26695 reference genome NC_000915.1 available on NCBI, by using the Bowtie2 aligner v.2.2.6 [106]. Unique gene hit counts were calculated by using featureCounts from the Subread package v.1.5.2. Only unique reads that fell within the gene regions were counted. Using DESeq2 [108], a comparison of the gene expression between the control and treated groups of samples was performed. The Wald test was used to generate p-values and log2 fold changes. Genes with an adjusted p-value < 0.05 and absolute log2 fold change >1 were considered as differentially expressed genes (DEGs) for each comparison. The RNA-Seq data generated in this study have been deposited in ArrayExpress with the accession number E-MTAB-14255.

SMILES: NC(=NOC(=O)Nc1ccc(Cl)cc1)c1csc([N+](=O)[O-])c1 [Ligand V, N′-{[(4-chloroanilino)carbonyl]}oxy-5-nitrothiophene-3-carboximidamide]
- log2 Fold Change (gene HP0450): -0.486
- log2 Fold Change (gene HP0462): -0.540
- log2 Fold Change HP0464 (gene HP0464, lethal concentrations of V vs control): 0.429
- log2 Fold Change (gene HP0465): -0.541
- log2 Fold Change (gene HP0469): 1.295
- log2 Fold Change (gene HP0472): 1.301
- log2 Fold Change HP0474 (gene HP0474, lethal concentrations of V vs control): 0.428
- log2 Fold Change HP0485 (gene HP0485, lethal concentrations of V vs control): 0.392
- log2 Fold Change HP0513 (gene HP0513, lethal concentrations of V vs control): 0.406
- log2 Fold Change HP0515 (gene HP0515, lethal concentrations of V vs control): 0.192
- log2 Fold Change (gene HP0518): -0.587
- log2 Fold Change HP0536 (gene HP0536, lethal concentrations of V vs control): 0.397
- log2 Fold Change (gene HP0537): -0.567
- log2 Fold Change HP0540 (gene HP0540, lethal concentrations of V vs control): 0.190
- log2 Fold Change HP0546 (gene HP0546, lethal concentrations of V vs control): 0.161
- log2 Fold Change (gene HP0555): -0.497
- log2 Fold Change HP0563 (gene HP0563, lethal concentrations of V vs control): 0.320
- log2 Fold Change (gene HP0568): -0.470
- log2 Fold Change HP0586 (gene HP0586, lethal concentrations of V vs control): 0.156
- log2 Fold Change HP0587 (gene HP0587, lethal concentrations of V vs control): 0.303
- log2 Fold Change HP0602 (gene HP0602, lethal concentrations of V vs control): 0.450
- log2 Fold Change (gene HP0608): -0.470
- log2 Fold Change (gene HP0613): 1.327
- log2 Fold Change HP0639 (gene HP0639, lethal concentrations of V vs control): 0.172
- log2 Fold Change HP0640 (gene HP0640, lethal concentrations of V vs control): 0.392
- log2 Fold Change (gene HP0641): -0.474
- log2 Fold Change (gene HP0642): -0.561
- log2 Fold Change (gene HP0648): -0.611
- log2 Fold Change HP0650 (gene HP0650, lethal concentrations of V vs control): 0.145
- log2 Fold Change HP0652 (gene HP0652, lethal concentrations of V vs control): 0.477
- log2 Fold Change HP0660 (gene HP0660, lethal concentrations of V vs control): 0.172
- log2 Fold Change HP0670 (gene HP0670, lethal concentrations of V vs control): 0.376
- log2 Fold Change HP0680 (gene HP0680, lethal concentrations of V vs control): 0.219
- log2 Fold Change (gene HP0692): 1.329
- log2 Fold Change HP0699 (gene HP0699, lethal concentrations of V vs control): 0.318
- log2 Fold Change (gene HP0702): -0.528
- log2 Fold Change HP0709 (gene HP0709, lethal concentrations of V vs control): 0.245
- log2 Fold Change (gene HP0734): -0.529
- log2 Fold Change (gene HP0737): -0.509
- log2 Fold Change (gene HP0741): -0.519
- log2 Fold Change HP0742 (gene HP0742, lethal concentrations of V vs control): 0.440
- log2 Fold Change HP0748 (gene HP0748, lethal concentrations of V vs control): 0.146
- log2 Fold Change HP0750 (gene HP0750, lethal concentrations of V vs control): 0.398
- log2 Fold Change (gene HP0755): -0.518
- log2 Fold Change (gene HP0759): 1.350
- log2 Fold Change HP0763 (gene HP0763, lethal concentrations of V vs control): 0.150
- log2 Fold Change (gene HP0765): -0.541
- log2 Fold Change (gene HP0772): -0.471
- log2 Fold Change HP0773 (gene HP0773, lethal concentrations of V vs control): 0.301
- log2 Fold Change HP0782 (gene HP0782, lethal concentrations of V vs control): 0.353
- log2 Fold Change HP0796 (gene HP0796, lethal concentrations of V vs control): 0.282
- log2 Fold Change HP0803 (gene HP0803, lethal concentrations of V vs control): 0.182
- log2 Fold Change HP0805 (gene HP0805, lethal concentrations of V vs control): 0.416
- log2 Fold Change (gene HP0810): -0.532
- log2 Fold Change (gene HP0819): -0.529
- log2 Fold Change HP0820 (gene HP0820, lethal concentrations of V vs control): 0.198
- log2 Fold Change HP0823 (gene HP0823, lethal concentrations of V vs control): 0.406
- log2 Fold Change HP0833 (gene HP0833, lethal concentrations of V vs control): 0.436
- log2 Fold Change HP0836 (gene HP0836, lethal concentrations of V vs control): 0.282
- log2 Fold Change (gene HP0840): -0.593
- log2 Fold Change HP0858 (gene HP0858, lethal concentrations of V vs control): 0.348
- log2 Fold Change (gene HP0861): -0.479
- log2 Fold Change HP0864 (gene HP0864, lethal concentrations of V vs control): 0.392
- log2 Fold Change HP0872 (gene HP0872, lethal concentrations of V vs control): 0.335
- log2 Fold Change (gene HP0885): -0.551
- log2 Fold Change HP0890 (gene HP0890, lethal concentrations of V vs control): 0.409
- log2 Fold Change HP0897 (gene HP0897, lethal concentrations of V vs control): 0.220
- log2 Fold Change HP0898 (gene HP0898, lethal concentrations of V vs control): 0.196
- log2 Fold Change HP0900 (gene HP0900, lethal concentrations of V vs control): 0.416
- log2 Fold Change HP0909 (gene HP0909, lethal concentrations of V vs control): 0.281
- log2 Fold Change (gene HP0916): -0.568
- log2 Fold Change (gene HP0935): -0.494
- log2 Fold Change (gene HP0936): -0.576
- log2 Fold Change (gene HP0939): -0.568
- log2 Fold Change HP0946 (gene HP0946, lethal concentrations of V vs control): 0.226
- log2 Fold Change HP0948 (gene HP0948, lethal concentrations of V vs control): 0.237
- log2 Fold Change HP0949 (gene HP0949, lethal concentrations of V vs control): 0.337
- log2 Fold Change (gene HP0953): -0.500
- log2 Fold Change HP0955 (gene HP0955, lethal concentrations of V vs control): 0.173
- log2 Fold Change HP0963 (gene HP0963, lethal concentrations of V vs control): 0.462
- log2 Fold Change HP0976 (gene HP0976, lethal concentrations of V vs control): 0.322
